Measured values published in patent US11208404B2 (PERENNA PHARMACEUTICALS, INC., priority 2017, dated 2021).
Where two headings read alike, the source gives them in different places.

Molecular target: ALCAT1 (Homo sapiens (Human), UniProt Q6UWP7)
Assay: In vitro acyltransferase assay for ALCAT1 inhibitors
Assay type: biochemical
Conditions: for inhibition at 1 µM / % inh @ 1 μM: 1 μM compound; for inhibition at 1 µM / inhibition at 10 µM / % inh @ 1 μM: in vitro enzymatic assay; for inhibition at 10 µM: 10 μM compound; for IC50: ALCAT1 enzyme activity
Source text: The human ALCAT1 protein were expressed in Spodoptera frugiperda (Sf9) insect cells by using a Bac-to-Bac baculovirus expression system (Invitrogen) according to the manufacturer's instruction. High-titer recombinant baculovirus expressing the human ALCAT1 protein was generated by several rounds of viral amplification. The Sf9 cells were typically infected with recombinant baculovirus for 3 days, harvested in ice-cold phosphate-buffered saline (PBS), and homogenized in 20 mm NaCl by going through French press. The total cell lysates were centrifuged at 10,000×g for 1 hours at 4° C. to eliminate the nucleus fraction, followed by ultracentrifugation at 100,000×g to pallet the membrane fraction. The membrane fraction was resuspended in enzymatic buffer that contain 10% glycerol, quantified for protein concentration, aliquoted, and stored at −80° C.
ALCAT1 enzymatic activity was determined by measuring the conversion of monolysocardiolipin (MLCL) to cardiolipin or lysophosphatidylglycerol (LPG) to phosphatidylglycerol (PG) in an enzymatic reaction mixture that contained 50 mm Tris/HCl, pH 7.0, 100 μm lysophospholipids, 25 μm [^14C]acyl-CoA (50 mCi/mmol, American Radiolabeled Chemicals, Inc), and membrane fraction (0.5-2.5 μg) in a total volume of 200 μl. The reaction was incubated at room temperature for 30 min. The lipids were extracted will chloroform, dried, and separated by thin layer chromatography (TLC) with chloroform:hexane:methanol:acetic acid (50:30:10:5, v/v) or chloroform:methanol:water (65:25:4, v/v). After separation, TLC plates were exposed to a Phosphorlmager screen to visualize the radiolabeled products with a Molecular Dynamics Typhoon Scanner (Sunnyvale, Calif.). In some experiments, NBD-CoA was used at 100 μM to replace the [^14C]acyl-CoA in the enzymatic reaction. All quantitative data were expressed as mean±S.E. Statistical analyses for differences between two groups were carried out using a Student's t test.
Compound inhibitors for ALCAT1 enzyme were analyzed by an in vitro enzymatic assay as detailed above. Compound inhibitors were added to the enzymatic mixture at 1-20 μM concentrations before the start of the acyltransferase reaction.
Where multiple measurements were taken this is indicated by a “/” between multiple values.
IC50 values for each compound were analyzed in triplicates, and calculated by GraphPad software.

[1] = triplicates, GraphPad, read-out: IC50

ALCAT1, sequence (Q6UWP7 whole entry): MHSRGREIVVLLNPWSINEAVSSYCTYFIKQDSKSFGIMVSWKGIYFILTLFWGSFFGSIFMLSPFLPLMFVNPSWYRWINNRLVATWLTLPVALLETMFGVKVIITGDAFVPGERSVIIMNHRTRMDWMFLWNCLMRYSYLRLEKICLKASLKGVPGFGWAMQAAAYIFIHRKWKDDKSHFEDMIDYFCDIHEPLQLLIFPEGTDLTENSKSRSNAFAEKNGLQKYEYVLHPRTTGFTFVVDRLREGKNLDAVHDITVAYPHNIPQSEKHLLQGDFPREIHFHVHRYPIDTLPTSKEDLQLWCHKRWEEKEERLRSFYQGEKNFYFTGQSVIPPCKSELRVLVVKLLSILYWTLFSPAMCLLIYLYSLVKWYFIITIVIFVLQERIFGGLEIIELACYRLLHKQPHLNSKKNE

| inhibition at 1 µM [%] | inhibition at 10 µM [%] | IC50 [1] [nM] | % inh @ 1 μM | IC50 (read-out: IC50 values (upper bounds)) [nM] | SMILES |
| --- | --- | --- | --- | --- | --- |
| 82 | 100 | 330 |  |  | O=C(Nc1cccc(-c2nnc(-c3ccco3)o2)c1)c1cccc(Br)c1F [Compound 191] |
| 70 | 88 | 360 |  |  | O=C(Nc1cccc(-c2nnc(-c3ccco3)o2)c1)c1cc(F)ccc1F [Compound 195] |
| 68 | 97 | 340 |  |  | O=C(Nc1cccc(-c2nnc(-c3ccco3)o2)c1)c1cccc(F)c1F [Compound 196] |
|  |  | 1900 |  |  | O=C(Nc1cccc(-c2nnc(-c3ccco3)o2)c1)c1cccc(Br)c1 [Compound 203] |
| 26 |  |  |  |  | O=C(Nc1cccc(-c2nnc(-c3ccco3)o2)c1)c1ccc2occc2c1 [Compound 212] |
| 67 |  |  | 76% |  | COc1ccc(F)c(C(=O)Nc2cccc(-c3nnc(-c4ccco4)o3)c2)c1 [Compound 214] |
| 100 |  | 26 | 100/100% | < 100 | CCOc1ccccc1C(=O)Nc1cc(-c2nnc(-c3ccco3)o2)ccc1F [Compound 215, 2-Ethoxy-N-(2-fluoro-5-(5-(furan-2-yl)-1,3,4-oxadiazol-2-yl)phenyl)benzamide] |
| 96 |  | 120 | 94% |  | COc1c(F)cccc1C(=O)Nc1cccc(-c2nnc(-c3ccco3)o2)c1 [Compound 220] |
| 92 |  | 100 | 97% |  | O=C(Nc1cccc(-c2nnc(-c3ccco3)o2)c1)c1cc(Cl)ccc1OCC(F)(F)F [Compound 225, 5-Chloro-N-(3-(5-(furan-2-yl)-1,3,4-oxadiazol-2-yl)phenyl)-2-(2,2,2-trifluoroethoxy)benzamide] |
| 97 |  | 170 | 97/97% |  | O=C(Nc1cc(Cl)ccc1F)c1cccc(-c2nnc(-c3ccco3)o2)c1 [Compound 229] |
| 94 |  | 410 | 89% |  | COc1ccc(Cl)cc1NC(=O)c1cccc(-c2nnc(-c3ccco3)o2)c1 [Compound 230] |
| 68 |  |  | 65% |  | O=C(Nc1cccc(-c2nnc(-c3ccco3)o2)c1)c1cccc(OC(F)(F)F)c1 [Compound 233] |
| 46 |  |  | 42% |  | O=C(Nc1cccc(-c2nnc(-c3ccco3)o2)c1)c1cccc(C(F)(F)F)c1 [Compound 234] |
| 12 |  |  |  |  | O=C(Nc1cccc(-c2nnc(-c3ccco3)o2)c1)c1cccnc1 [Compound 235] |
| 35 |  |  | 46% |  | O=C(Nc1cccc(-c2nnc(-c3ccco3)o2)c1)c1ccncc1 [Compound 237] |
| 83 |  | 780 | 84% |  | Cc1ccc(F)c(NC(=O)c2cccc(-c3nnc(-c4ccco4)o3)c2)c1 [Compound 271] |
| 23 |  |  | 23/23% |  | CC(C)c1cccc(C(=O)Nc2cccc(-c3nnc(-c4ccco4)o3)c2)c1 [Compound 277] |
|  |  | 120 |  |  | O=C(Nc1cccc(-c2nnc(-c3ccco3)o2)c1)c1cc(Cl)ccc1OCC(F)F [Compound 286] |
| 37 |  |  |  |  | O=C(Nc1cc(Cl)cc(-c2nnc(-c3ccco3)o2)c1)c1ccccc1F [Compound 295] |

More lines, now with the values behind:

| SMILES | inhibition at 1 µM [%] | inhibition at 10 µM [%] | IC50 [1] [nM] | % inh @ 1 μM | IC50 (read-out: IC50 values (upper bounds)) [nM] |
| --- | --- | --- | --- | --- | --- |
| COc1c(Br)cccc1C(=O)Nc1cccc(-c2nnc(-c3ccco3)o2)c1 [Compound 192, 3-Bromo-N-(3-(5-(furan-2-yl)-1,3,4-oxadiazol-2-yl)phenyl)-2-methoxybenzamide] | 89 |  | 92 | 93% |  |
| COc1c(Cl)cccc1C(=O)Nc1cccc(-c2nnc(-c3ccco3)o2)c1 [Compound 193, 3-Chloro-N-(3-(5-(furan-2-yl)-1,3,4-oxadiazol-2-yl)phenyl)-2-methoxybenzamide] | 92 | 90 | 67 |  |  |
| COc1ccc(C)cc1C(=O)Nc1cccc(-c2nnc(-c3ccco3)o2)c1 [Compound 197, N-(3-(5-(Furan-2-yl)-1,3,4-oxadiazol-2-yl)phenyl)-2-methoxy-5-methylbenzamide] | 80 | 97 | 79 |  |  |
| CCCOc1ccc(C)cc1C(=O)Nc1cccc(-c2nnc(-c3ccco3)o2)c1 [Compound 207] | 86 |  | 190 | 87% |  |
| O=C(Nc1cccc(-c2nnc(-c3ccco3)o2)c1)c1cc(OC(F)(F)F)ccc1F [Compound 211, 2-Fluoro-N-(3-(5-(furan-2-yl)-1,3,4-oxadiazol-2-yl)phenyl)-5-(trifluoromethoxy)benzamide] | 95 |  | 96 | 97% |  |
| CCCCOc1ccccc1C(=O)Nc1cc(-c2nnc(-c3ccco3)o2)ccc1F [Compound 213] | 56 |  |  | 64% |  |
| CC(C)COc1ccccc1C(=O)Nc1cccc(-c2nnc(-c3ccco3)o2)c1 [Compound 217] | 69 |  |  | 68% |  |
| CCOc1ccc(C)cc1C(=O)Nc1cccc(-c2nnc(-c3ccco3)o2)c1 [Compound 218, 2-Ethoxy-N-(3-(5-(furan-2-yl)-1,3,4-oxadiazol-2-yl)phenyl)-5-methylbenzamide] | 99 |  | 67 | 98% |  |
| O=C(Nc1cccc(-c2nnc(-c3ccco3)o2)c1)c1ccccc1OCC(F)(F)F [Compound 223] | 94 |  | 150 | 90% |  |
| Cc1ccc(OCC(F)(F)F)c(C(=O)Nc2cccc(-c3nnc(-c4ccco4)o3)c2)c1 [Compound 224] | 91 |  | 190 | 97% |  |
| O=C(Nc1cccc(-c2nnc(-c3ccco3)o2)c1)c1cc(Br)ccc1OCC(F)(F)F [Compound 226, 5-Bromo-N-(3-(5-(furan-2-yl)-1,3,4-oxadiazol-2-yl)phenyl)-2-(2,2,2-trifluoroethoxy)benzamide] | 100 |  | 60 | 99% |  |
| O=C(Nc1cccc(-c2nnc(-c3ccco3)o2)c1)c1cccc2ccoc12 [Compound 227] | 85 |  | 160 | 89% |  |
| O=C(Nc1cccc(-c2nnc(-c3ccco3)o2)c1)c1cc(F)ccc1OCC(F)(F)F [Compound 228, 5-Fluoro-N-(3-(5-(furan-2-yl)-1,3,4-oxadiazol-2-yl)phenyl)-2-(2,2,2-trifluoroethoxy)benzamide] | 100 |  | 72 | 99% |  |
| O=C(Nc1cccc(-c2nnc(-c3ccco3)o2)c1)c1ccccc1OC(F)(F)F [Compound 232] | 61 |  |  | 61/61% |  |
| O=C(Nc1cccc(-c2nnc(-c3ncco3)o2)c1)c1ccccc1F [Compound 236] | 7 |  |  | 8% |  |
| O=C(Nc1cccc(-c2nnc(-c3ccco3)o2)c1)c1cccc(-c2ccccc2)c1 [Compound 238] | 23 |  |  | 23/23% |  |
| CCc1ccccc1C(=O)Nc1cccc(-c2nnc(-c3ccco3)o2)c1 [Compound 240] | 12 |  |  | 6% |  |
| CS(=O)(=O)c1ccccc1C(=O)Nc1cccc(-c2nnc(-c3ccco3)o2)c1 [Compound 248] | 30 |  |  | 50% |  |
| O=C(Nc1cccc(-c2nnc(-c3ccco3)o2)c1)c1ccccc1OC(F)F [Compound 273] | 97 |  | 120 | 96% |  |
| O=C(Nc1cccc(-c2nnc(-c3ccco3)o2)c1)c1ccccc1OCC(F)F [Compound 275] | 98 |  | 200 | 99% |  |
| COc1ccc(C(F)(F)F)cc1C(=O)Nc1cccc(-c2nnc(-c3ccco3)o2)c1 [Compound 278] | 97 |  | 120 | 100% |  |
| CCc1ccc(OC)c(C(=O)Nc2cccc(-c3nnc(-c4ccco4)o3)c2)c1 [Compound 280] | 94 |  | 120 | 100% |  |
| O=C(Nc1cc(-c2ncc(-c3ccco3)o2)ccc1F)c1cccnc1F [Compound 288] | 48 |  |  | 59% |  |
| O=C(Nc1cc(-c2nnc(-c3cncs3)o2)ccc1F)c1ccccc1F [Compound 290, 2-fluoro-N-(2-fluoro-5-(5-(thiazol-5-yl)-1,3,4-oxadiazol-2-yl)phenyl)benzamide] | 24 |  |  | 31% |  |
| O=C(Nc1cccc(-c2nnc(-c3cncs3)o2)c1)c1ccccc1F [Compound 292] | 14 |  |  | 12% |  |
